Values after ≈ are worked out from the molar mass of the structure shown.
Assays:
[1] = Antiproliferative activity against human QGY7703 cells; format: functional, cell-based; conditions: QGY-7703
RAW264.7 = assay: Antiinflammatory activity in mouse RAW264.7 cells assessed as inhibition of LPS-induced NO release; format: functional, cell-based
[2] = Inhibition of TNF-alpha-induced NF-kappaB activity in human pNF-kappaB-luc-293 cells; format: cell-based; conditions: HEK293
LoVo = assay: Antiproliferative activity against human LoVo cells; format: functional, cell-based

SMILES: CC(C)/C(C=O)=C\C[C@H]1C(=O)CC[C@@H]2[C@]1(C)CCC[C@@]2(C)C(=O)O [ABIESADINE A]
- IC50 [1]: > 25 µg/mL
- IC50 (RAW264.7): > 100 µg/mL
- IC50 [2]: > 100 µg/mL
- IC50 (LoVo): > 25 µg/mL

SMILES: CC(C)(O)c1ccc2c(c1)CC[C@H]1[C@](C)(COC(=O)CCC(=O)O)CCC[C@]21C [ABIESADINE I]
- IC50 [1]: > 25 µg/mL
- IC50 (RAW264.7): > 100 µg/mL
- IC50 [2]: > 100 µg/mL
- IC50 (LoVo): > 25 µg/mL

SMILES: COC(C)(C)c1ccc2c(c1)CC[C@H]1[C@](C)(C(=O)O)CCC[C@]21C [ABIESADINE N]
- IC50 [1]: > 25 µg/mL
- IC50 (RAW264.7): > 100 µg/mL
- IC50 [2]: > 100 µg/mL
- IC50 (LoVo): > 25 µg/mL

SMILES: COC(=O)CCC(=O)OC[C@]1(C)CCC[C@]2(C)c3ccc(C(C)(C)O)cc3CC[C@@H]12 [ABIESADINE K]
- IC50 [1]: > 25 µg/mL
- IC50 (RAW264.7): 52.1 µg/mL (≈ 125 µM)
- IC50 [2]: > 100 µg/mL
- IC50 (LoVo): > 25 µg/mL

SMILES: CC(C)[C@]12CC[C@@]3(O1)[C@@]1(C)CCC[C@@](C)(C(=O)O)[C@@H]1CC[C@]3(O)[C@H]2O [ABIESADINE D]
- IC50 [1]: > 25 µg/mL
- IC50 (RAW264.7): > 100 µg/mL
- IC50 [2]: > 100 µg/mL
- IC50 (LoVo): > 25 µg/mL

SMILES: COC(C)(C)c1ccc2c(c1)CC[C@H]1[C@](C)(COC(=O)CCC(=O)O)CCC[C@]21C [ABIESADINE J]
- IC50 [1]: > 25 µg/mL
- IC50 (RAW264.7): > 100 µg/mL
- IC50 [2]: > 100 µg/mL
- IC50 (LoVo): > 25 µg/mL

SMILES: C=C[C@@](C)(O)CC[C@H]1C(=C)CC[C@H]2[C@](C)(COC(=O)CCC(=O)OC)CCC[C@]12C [ABIESADINE Y]
- IC50 [1]: > 25 µg/mL
- IC50 (RAW264.7): 48.5 µg/mL (≈ 115 µM)
- IC50 [2]: 22.4 µg/mL (≈ 53.3 µM)
- IC50 (LoVo): 10.6 µg/mL (≈ 25.2 µM)

SMILES: CO[C@@H]1C[C@H]2[C@](C)(COC(=O)CCC(=O)O)CCC[C@]2(C)c2ccc(C(C)C)cc21 [ABIESADINE G]
- IC50 [1]: > 25 µg/mL
- IC50 (RAW264.7): > 100 µg/mL
- IC50 [2]: > 100 µg/mL
- IC50 (LoVo): > 25 µg/mL

SMILES: CC(C)c1ccc2c(c1)C(=O)C[C@H]1[C@](C)(CO)CCC[C@]21C
- IC50 [1]: > 25 µg/mL
- IC50 (RAW264.7): > 100 µg/mL
- IC50 [2]: > 100 µg/mL
- IC50 (LoVo): > 25 µg/mL

SMILES: CC(C)(O)c1ccc2c(c1)C(=O)C[C@H]1[C@](C)(COC(=O)CCC(=O)O)CCC[C@]21C [ABIESADINE R]
- IC50 [1]: > 25 µg/mL
- IC50 (RAW264.7): > 100 µg/mL
- IC50 [2]: > 100 µg/mL
- IC50 (LoVo): > 25 µg/mL

SMILES: CC(C)c1ccc(O)c(CC[C@@H]2[C@@](C)(O)CCC[C@@]2(C)C(=O)O)c1 [ABIESADINE B]
- IC50 [1]: > 25 µg/mL
- IC50 (RAW264.7): > 100 µg/mL
- IC50 [2]: > 100 µg/mL
- IC50 (LoVo): > 25 µg/mL

SMILES: CC(C)[C@]12O[C@H]1CC1[C@@]3(C)CCC[C@@](C)(C(=O)O)[C@@H]3CC[C@@]1(O)[C@H]2O (some centres undefined) [ABIESADINE C]
- IC50 [1]: > 25 µg/mL
- IC50 (RAW264.7): > 100 µg/mL
- IC50 [2]: > 100 µg/mL
- IC50 (LoVo): > 25 µg/mL

SMILES: CC(C)(O)c1ccc2c(c1)[C@@H](O)C[C@H]1[C@](C)(C(=O)O)CCC[C@]21C
- IC50 [1]: > 25 µg/mL
- IC50 (RAW264.7): > 100 µg/mL
- IC50 [2]: > 100 µg/mL
- IC50 (LoVo): > 25 µg/mL

SMILES: CC(C)(O)c1ccc2c(c1)CC[C@H]1[C@](C)(CO)CCC[C@]21C
- IC50 [1]: > 25 µg/mL
- IC50 (RAW264.7): > 100 µg/mL
- IC50 [2]: > 100 µg/mL
- IC50 (LoVo): > 25 µg/mL

SMILES: C=C[C@@](C)(O)CC[C@@H]1[C@@]2(C)CCCC(C)(C)[C@@H]2CC[C@@]1(C)O
- IC50 [1]: > 25 µg/mL
- IC50 (LoVo): 13 µg/mL (≈ 42.1 µM)

SMILES: CC(C)[C@@]12C=C3CC[C@H]4[C@](C)(C(=O)O)CCC[C@]4(C)[C@]3(CC1)OO2
- IC50 [1]: > 25 µg/mL
- IC50 (RAW264.7): > 100 µg/mL
- IC50 [2]: > 100 µg/mL
- IC50 (LoVo): > 25 µg/mL

SMILES: CC(C)[C@]12C=C3CC[C@H]4[C@](C)(COC(=O)CCC(=O)O)CCC[C@]4(C)[C@@]3(CC1)OO2 [ABIESADINE W]
- IC50 [1]: > 25 µg/mL
- IC50 (RAW264.7): > 100 µg/mL
- IC50 [2]: > 100 µg/mL
- IC50 (LoVo): > 25 µg/mL

SMILES: CC(C)C1=CC2=CC[C@@H]3[C@](C)(CCC[C@@]3(C)C(=O)O)[C@H]2CC1 [ABIETIC ACID]
- IC50 [1]: > 25 µg/mL
- IC50 (RAW264.7): > 100 µg/mL
- IC50 [2]: > 100 µg/mL
- IC50 (LoVo): > 25 µg/mL

SMILES: CC(C)(O)c1ccc2c(c1)[C@H](O)C[C@H]1[C@](C)(COC(=O)CCC(=O)O)CCC[C@]21C [ABIESADINE L]
- IC50 [1]: > 25 µg/mL
- IC50 (RAW264.7): > 100 µg/mL
- IC50 [2]: > 100 µg/mL
- IC50 (LoVo): > 25 µg/mL

SMILES: C/C(=C\CO)CCC1[C@](C)(O)CC[C@H]2C(C)(C)CCC[C@]12C (some centres undefined)
- IC50 [1]: > 25 µg/mL
- IC50 (RAW264.7): > 100 µg/mL
- IC50 [2]: > 100 µg/mL
- IC50 (LoVo): > 25 µg/mL

SMILES: N=C(N)NN [PIMAGEDINE]
- IC50 (RAW264.7): 3.3 µg/mL (≈ 44.5 µM)

SMILES: COC(C)(C)c1ccc2c(c1)[C@H](O)C[C@H]1[C@](C)(C(=O)O)CCC[C@]21C [ABIESADINE O]
- IC50 [1]: > 25 µg/mL
- IC50 (RAW264.7): > 100 µg/mL
- IC50 [2]: > 100 µg/mL
- IC50 (LoVo): > 25 µg/mL

SMILES: CC(C)c1ccc2c(c1)C(=O)C[C@H]1[C@](C)(COC(=O)CCC(=O)O)CCC[C@]21C [ABIESADINE Q]
- IC50 [1]: > 25 µg/mL
- IC50 (RAW264.7): > 100 µg/mL
- IC50 [2]: > 100 µg/mL
- IC50 (LoVo): > 25 µg/mL

SMILES: CCOC(C)(C)c1ccc2c(c1)CC[C@H]1[C@](C)(C(=O)O)CCC[C@]21C [ABIESADINE P]
- IC50 [1]: > 25 µg/mL
- IC50 (RAW264.7): 94.1 µg/mL (≈ 273 µM)
- IC50 [2]: > 100 µg/mL
- IC50 (LoVo): > 25 µg/mL

SMILES: C=C[C@@](C)(O)CCC1C(=C)CC[C@H]2[C@](C)(COC(=O)CCC(=O)O)CCC[C@]12C (some centres undefined) [ABIESADINE X]
- IC50 [1]: > 25 µg/mL
- IC50 (RAW264.7): > 100 µg/mL
- IC50 [2]: > 100 µg/mL
- IC50 (LoVo): > 25 µg/mL

SMILES: CC(C)(O)c1ccc2c(c1)[C@H](O)C[C@H]1[C@](C)(C(=O)O)CCC[C@]21C
- IC50 [1]: > 25 µg/mL
- IC50 (RAW264.7): > 100 µg/mL
- IC50 [2]: > 100 µg/mL
- IC50 (LoVo): > 25 µg/mL

SMILES: CC(C)(O)C1=CC2=CC[C@@H]3[C@](C)(CCC[C@@]3(C)C(=O)O)[C@H]2CC1=O
- IC50 [1]: > 25 µg/mL
- IC50 (RAW264.7): > 100 µg/mL
- IC50 [2]: > 100 µg/mL
- IC50 (LoVo): > 25 µg/mL

SMILES: CC(C)c1ccc2c(c1)CC[C@H]1[C@](C)(COC(=O)CCC(=O)O)CCC[C@]21C
- IC50 [1]: > 25 µg/mL
- IC50 (RAW264.7): > 100 µg/mL
- IC50 [2]: > 100 µg/mL
- IC50 (LoVo): > 25 µg/mL

SMILES: C=C[C@@](C)(O)CC[C@H]1C(=C)CC[C@H]2C(C)(C)CCC[C@]12C [MANOOL]
- IC50 [1]: > 25 µg/mL
- IC50 (RAW264.7): 11 µg/mL (≈ 37.9 µM)
- IC50 [2]: > 100 µg/mL
- IC50 (LoVo): > 25 µg/mL

SMILES: CC(C)c1ccc2c(c1)[C@@H](O)C[C@H]1[C@](C)(C(=O)O)CCC[C@]21C
- IC50 [1]: > 25 µg/mL
- IC50 (RAW264.7): > 100 µg/mL
- IC50 [2]: > 100 µg/mL
- IC50 (LoVo): > 25 µg/mL

SMILES: C=C/C(C)=C\CC1[C@](C)(O)CC[C@H]2C(C)(C)CCC[C@]12C (some centres undefined)
- IC50 [1]: 25 µg/mL (≈ 86.1 µM)
- IC50 (RAW264.7): > 100 µg/mL
- IC50 [2]: > 100 µg/mL
- IC50 (LoVo): 20.3 µg/mL (≈ 69.9 µM)

SMILES: CC(C)(O)c1ccc2c(c1)CC[C@H]1[C@](C)(C(=O)O)CCC[C@]21C
- IC50 [1]: > 25 µg/mL
- IC50 (RAW264.7): 76.4 µg/mL (≈ 241 µM)
- IC50 [2]: > 100 µg/mL
- IC50 (LoVo): > 25 µg/mL

SMILES: CC(C)c1ccc2c(c1)[C@H](O)C[C@H]1[C@](C)(COC(=O)CCC(=O)O)CCC[C@]21C [ABIESADINE F]
- IC50 [1]: > 25 µg/mL
- IC50 (RAW264.7): > 100 µg/mL
- IC50 [2]: > 100 µg/mL
- IC50 (LoVo): > 25 µg/mL

SMILES: COC(C)(C)c1ccc2c(c1)[C@H](O)C[C@H]1[C@](C)(COC(=O)CCC(=O)O)CCC[C@]21C [ABIESADINE M]
- IC50 [1]: > 25 µg/mL
- IC50 (RAW264.7): > 100 µg/mL
- IC50 [2]: > 100 µg/mL
- IC50 (LoVo): > 25 µg/mL

SMILES: CC(C)c1ccc2c(c1)C(=O)C[C@H]1[C@](C)(C(=O)O)CCC[C@]21C
- IC50 [1]: 10.2 µg/mL (≈ 32.4 µM)
- IC50 (RAW264.7): > 100 µg/mL
- IC50 [2]: > 100 µg/mL
- IC50 (LoVo): > 25 µg/mL

SMILES: CC(C)[C@]12C=C3CC[C@H]4[C@](C)(C(=O)O)CCC[C@]4(C)[C@@]3(CC1)OO2
- IC50 [1]: > 25 µg/mL
- IC50 (RAW264.7): > 100 µg/mL
- IC50 [2]: > 100 µg/mL
- IC50 (LoVo): > 25 µg/mL

SMILES: CC(C)C1=CC[C@H]2C(=C1)C(=O)C[C@@H]1[C@]2(C)CCC[C@@]1(C)C(=O)O [ABIESADINE E]
- IC50 [1]: > 25 µg/mL
- IC50 (RAW264.7): > 100 µg/mL
- IC50 [2]: > 100 µg/mL
- IC50 (LoVo): > 25 µg/mL

SMILES: COC(=O)CCC(=O)OC[C@]1(C)CCC[C@]2(C)c3ccc(C(C)(C)O)cc3C(=O)C[C@@H]12 [ABIESADINE S]
- IC50 [1]: > 25 µg/mL
- IC50 (RAW264.7): 49 µg/mL (≈ 114 µM)
- IC50 [2]: > 100 µg/mL
- IC50 (LoVo): > 25 µg/mL

SMILES: COc1cccc2c1C(=O)c1c(O)c3c(c(O)c1C2=O)C[C@@](O)(C(=O)CO)C[C@@H]3O[C@H]1C[C@H](N)[C@H](O)[C@H](C)O1 [DOXORUBICIN]
- IC50 [1]: 0.42 µg/mL (≈ 0.773 µM)
- IC50 (LoVo): 0.55 µg/mL (≈ 1.01 µM)
